Patent US11643439B2, “Multi-target compound with anticoagulation and antiplatelet activity, preparation method therefor, and use thereof” (SHAANXI MICOT TECHNOLOGY LIMITED COMPANY, priority 2015, dated 2023)

Key:
[1] = system: FeCl3-induced inferior vena cava thrombosis; assay: FeCl3-induced inferior vena cava thrombosis in rats; type: in vivo, rat
Method: (§1) 160 Rats were randomly divided into groups, 5 to 10 rats per group.
(§2) According to the body weight in kilograms of the rats, the first dose of a drug was dissolved in 2 mL of physiological saline for single bolus injection. The maintaining dose of drug was dissolved in 9 ml of physiological saline, and placed in a double-channel micro-injection pump, which was dripped off within 90 minutes at a dripping speed of 0.1 ml/min. The sham operation group was administered with the same volume of physiological saline.
(§3) The rats were fasted with free access to water overnight before the experiment.
15 minutes later, the filter paper was removed. And then, after observation for 45 minutes, the blood vessels and local tissues were rinsed with warm physiological saline, and the covered blood vessels were cut off. The thrombus which attached to the blood vessel walls was peeled off to be weighed on a tin foil for its wet weight, and then weighed overnight at room temperature for its dry weight. The administration was continued until the completion of the experiment.
After the experiment was completed, the segment of the blood vessels in which there had been thrombus formation was cut off, weighed for the wet weight, and then weighed overnight at room temperature for the dry weight of the thrombus. Thrombosis inhibitory rate was calculated.

[2] = system: blood coagulation function; assay: APTT in rats, intravenous maintenance administration; type: in vivo, rat
Method: as §1, §2, §3
(§4) The blood samples were taken before administration, administration for 60 minutes, and before termination of administration, respectively, to determine their activated partial thromboplastin time (APTT) and prothrombin time (PT). The blood samples were centrifuged at 3510 rpm for 8 minutes to obtain platelet poor plasma (PPP). Reagent reconstruction and preservation were performed according to the operation requirements of the kit. Immediately after each blood sample was placed into a test cup and then PT and APTT reagents were added, the test was started. After the test was completed, results were recorded.
(§5) 5.1 Determination of blood coagulation function: The blood samples were taken 0 min before administration, administration for 60 minutes, and termination of administration, respectively, and then determined using a platelet-aggregation coagulation factor analyzer for the blood coagulation functions (PT. APTT) and ACT.

[3] = system: blood coagulation function; assay: PT in rats, intravenous maintenance administration; type: in vivo, rat
Method: as §1, §2, §3, §4, §5

[4] = system: FeCl3-induced femoral artery thrombosis; assay: FeCl3-induced femoral artery thrombosis in rabbits, single intravenous administration; type: in vivo, rabbit
Method: 1. Grouping and administration: 48 Rabbits were randomly divided into 6 groups, 8 rabbits per group. 1) Sham operation group (NS): Intravenous injection of the same volume of physiological saline; 2) positive control bivalirudin group (6 mg/kg); 3) positive control enoxaparin group (200 U/kg); 4) Low dose group of polypeptide 2 (3.0 mg/kg); 5) Medium dose group of polypeptide 2 (6.0 mg/kg); 6) High dose group of polypeptide 2 (12.0 mg/kg). Polypeptide 2 was administered by single intravenous administration. According to the body weight in kilograms of the rabbits, the sample was dissolved in 2 mL of physiological saline for single bolus injection. The sham operation group was administered with the same volume of physiological saline.
2.1 Surgery preparation of rabbits: Rabbit were sent to the laboratory for accommodation for one day, and then screened at first. Blood samples were taken from arteries within ears, which were subjected to blood routine analysis and APTT examinations, and the rabbits with a normal blood hemogram and APTT between 16 and 28 seconds were selected for experiments. The rabbits to be tested were fasted with free access to water in the night before the experiment. The rabbits were anesthetized with intravenous injection of 3% sodium pentobarbital solution at 1 ml/kg, fixed in the supine position, and then, the common carotid artery at one side, external jugular vein, femoral artery at one side, femoral vein, and forelimb vein at one side were isolated. The forelimb vein was subjected to intubation for administration; the left femoral vein was subjected to intubation for blood collection to determine the platelet aggregation rate: the femoral artery was used for the establishment of an arterial thrombosis model; the common carotid artery and external jugular vein were used for the establishment of an arterial and venous bypass thrombosis model.
2.3 Arterial thrombosis (AT) model: A small piece of filter paper (1 cm×1.5 cm) absorbed with 50% FeCl3 solution was applied onto the right femoral artery while administration, below which a small piece of a plastic film (2.5 cm×2.0 cm) was placed to protect surrounding tissues. After 10 minutes, the filter paper was removed, and then, the blood vessels and local tissues were rinsed with warm physiological saline, and the covered blood vessels were cut off. The thrombus which attached to the blood vessel walls was peeled off to be weighed on a tin foil for its wet weight, and then kept overnight at room temperature and weighed for its dry weight.
The femoral arteries in the […] and both sides in the rabbits were isolated and stabilized for 10 min before the administration was started. An AT model was established by covering the femoral artery with 50% FeCl3 filter paper while administration, and the filter paper was removed after covering for 15 minutes. An AVST model was established and it was taken out after […]. Observation was continued for 120 min after administration until the experiment was completed.
3.4 Thrombus weight: After the experiment was completed, the segment of the blood vessels in which there had been thrombus formation was cut off, weighed for the wet weight, and then kept overnight at room temperature and weighed for the dry weight. The thrombosis inhibitory rate was calculated with a calculation equation as follows: […]

[5] = iv 0.08 + 0.325 (mg/kg + mg/kg/h)
[6] = iv 0.17 + 0.65 (mg/kg + mg/kg/h)
[7] = iv 0.35 + 1.3 (mg/kg + mg/kg/h)
[8] = iv 0.35 + 3.3 (mg/kg + mg/kg/h)
[9] = iv 0.041 + 0.125 (mg/kg + mg/kg/h)
[10] = iv 0.125 + 0.375 (mg/kg + mg/kg/h)
[11] = iv 0.25 + 0.75 (mg/kg + mg/kg/h)
[12] = iv 0.5 + 1.25 (mg/kg + mg/kg/h)
[13] = iv 1.5 + 3.75 (mg/kg + mg/kg/h)

Bivalirudin: Bivalirudin for Injection, Xi'an Xintong Pharmaceutical Research Co., Ltd.; positive control thrombin inhibitor
Inferior vena cava thrombosis Inhibition percentage [1, 5]: 20.03%
Inferior vena cava thrombosis Thrombus weight [1, 5]: 18.03 ± 1.39 mg
Inferior vena cava thrombosis Inhibition percentage [1, 6]: 35.97%
Inferior vena cava thrombosis Thrombus weight [1, 6]: 14.43 ± 3.84 mg
Inferior vena cava thrombosis Inhibition percentage [1, 7]: 68.67%
Inferior vena cava thrombosis Thrombus weight [1, 7]: 7.06 ± 4.07 mg
Inferior vena cava thrombosis Inhibition percentage ([1]; iv 0.5 + 2 (mg/kg + mg/kg/h)): 67.79%
Inferior vena cava thrombosis Thrombus weight ([1]; iv 0.5 + 2 (mg/kg + mg/kg/h)): 7.26 ± 3.15 mg
APTT Before administration [2, 5]: 25.05 ± 1.78
APTT Fold of change [2, 5]: 1.36 ± 0.50
APTT administration for 60 minutes [2, 5]: 34.18 ± 12.92
APTT Before administration [2, 6]: 25.55 ± 5.02
APTT Fold of change [2, 6]: 1.66 ± 0.60
APTT administration for 60 minutes [2, 6]: 41.46 ± 14.96
APTT Before administration [2, 8]: 23.16 ± 2.37
APTT Fold of change [2, 8]: 4.10 ± 1.86
APTT administration for 60 minutes [2, 8]: 95.86 ± 45.71
APTT Before administration ([2]; iv 0.5 + 2 (mg/kg + mg/kg/h)): 24.77 ± 7.84
APTT Fold of change ([2]; iv 0.5 + 2 (mg/kg + mg/kg/h)): 3.89 ± 1.37
APTT administration for 60 minutes ([2]; iv 0.5 + 2 (mg/kg + mg/kg/h)): 90.23 ± 21.92
PT Before administration [3, 5]: 10.42 ± 1.16
PT Fold of change [3, 5]: 1.82 ± 0.24
PT administration for 60 minutes [3, 5]: 18.95 ± 3.36
PT Before administration [3, 6]: 11.16 ± 1.28
PT Fold of change [3, 6]: 1.99 ± 0.78
PT administration for 60 minutes [3, 6]: 21.85 ± 7.38
PT Before administration [3, 7]: 11.73 ± 1.48
PT Fold of change [3, 7]: 3.54 ± 1.45
PT administration for 60 minutes [3, 7]: 42.58 ± 21.94
PT Before administration ([3]; iv 0.5 + 2 (mg/kg + mg/kg/h)): 7.87 ± 1.93
PT Fold of change ([3]; iv 0.5 + 2 (mg/kg + mg/kg/h)): 4.46 ± 1.47
PT administration for 60 minutes ([3]; iv 0.5 + 2 (mg/kg + mg/kg/h)): 39.13 ± 7.30
Thrombus dry weight ([4]; single iv 6.0 mg/kg): 1.5 ± 0.9 mg
Thrombus inhibitory rate ([4]; single iv 6.0 mg/kg): 48.20%

D-Phe Pro Arg Pro Gly Gly Gly Gly Asn Gly Asp Phe Glu Glu Ile Pro Glu Glu Tyr Leu Glu Ala Ala Ala Lys Cys Har Gly Asp Trp Pro Cys [Polypeptide 2]
Inferior vena cava thrombosis Inhibition percentage [1, 9]: 10.38%
Inferior vena cava thrombosis Thrombus weight [1, 9]: 20.20 ± 10.00 mg
Inferior vena cava thrombosis Inhibition percentage [1, 10]: 27.99%
Inferior vena cava thrombosis Thrombus weight [1, 10]: 16.23 ± 6.76 mg
Inferior vena cava thrombosis Inhibition percentage [1, 11]: 36.85%
Inferior vena cava thrombosis Thrombus weight [1, 11]: 14.23 ± 4.82 mg
Inferior vena cava thrombosis Inhibition percentage [1, 12]: 58.96%
Inferior vena cava thrombosis Thrombus weight [1, 12]: 9.25 ± 4.86 mg
Inferior vena cava thrombosis Inhibition percentage ([1]; iv 1 + 2.5 (mg/kg + mg/kg/h)): 56.03%
Inferior vena cava thrombosis Thrombus weight ([1]; iv 1 + 2.5 (mg/kg + mg/kg/h)): 9.91 ± 6.20 mg
Inferior vena cava thrombosis Inhibition percentage [1, 13]: 68.37%
Inferior vena cava thrombosis Thrombus weight [1, 13]: 7.13 ± 3.46 mg
APTT Before administration [2, 9]: 24.54 ± 5.09
APTT Fold of change [2, 9]: 1.65 ± 0.84
APTT administration for 60 minutes [2, 9]: 37.29 ± 10.59
APTT Before administration [2, 10]: 24.05 ± 5.44
APTT Fold of change [2, 10]: 1.94 ± 0.68
APTT administration for 60 minutes [2, 10]: 44.55 ± 12.74
APTT Before administration [2, 11]: 24.98 ± 5.11
APTT Fold of change [2, 11]: 2.22 ± 1.12
APTT administration for 60 minutes [2, 11]: 53.13 ± 22.57
APTT Before administration [2, 12]: 22.03 ± 4.70
APTT Fold of change [2, 12]: 2.49 ± 1.38
APTT administration for 60 minutes [2, 12]: 52.29 ± 25.87
APTT Before administration ([2]; iv 1 + 2.5 (mg/kg + mg/kg/h)): 23.98 ± 6.83
APTT Fold of change ([2]; iv 1 + 2.5 (mg/kg + mg/kg/h)): 5.01 ± 3.00
APTT administration for 60 minutes ([2]; iv 1 + 2.5 (mg/kg + mg/kg/h)): 108.52 ± 56.27
APTT Before administration [2, 13]: 23.94 ± 4.49
APTT Fold of change [2, 13]: 3.19 ± 2.02
APTT administration for 60 minutes [2, 13]: 74.62 ± 49.41
PT Before administration [3, 9]: 10.74 ± 3.97
PT Fold of change [3, 9]: 1.95 ± 1.27
PT administration for 60 minutes [3, 9]: 18.95 ± 8.65
PT Before administration [3, 10]: 11.21 ± 1.62
PT Fold of change [3, 10]: 1.70 ± 0.34
PT administration for 60 minutes [3, 10]: 19.00 ± 4.39
PT Before administration [3, 11]: 11.19 ± 1.06
PT Fold of change [3, 11]: 1.87 ± 0.50
PT administration for 60 minutes [3, 11]: 20.82 ± 5.66
PT Before administration [3, 12]: 10.58 ± 1.48
PT Fold of change [3, 12]: 2.53 ± 0.73
PT Before administration ([3]; iv 1 + 2.5 (mg/kg + mg/kg/h)): 10.53 ± 1.29
PT Fold of change ([3]; iv 1 + 2.5 (mg/kg + mg/kg/h)): 5.57 ± 2.74
PT administration for 60 minutes ([3]; iv 1 + 2.5 (mg/kg + mg/kg/h)): 56.65 ± 23.16
PT Before administration [3, 13]: 11.98 ± 1.02
PT Fold of change [3, 13]: 3.91 ± 1.89
PT administration for 60 minutes [3, 13]: 46.64 ± 23.46
Thrombus dry weight ([4]; single iv 3.0 mg/kg): 1.4 ± 0.5 mg
Thrombus inhibitory rate ([4]; single iv 3.0 mg/kg): 52.99%
Thrombus dry weight ([4]; single iv 6.0 mg/kg): 1.2 ± 0.7 mg
Thrombus inhibitory rate ([4]; single iv 6.0 mg/kg): 56.90%
Thrombus dry weight ([4]; single iv 12.0 mg/kg): 1.1 ± 0.9 mg
Thrombus inhibitory rate ([4]; single iv 12.0 mg/kg): 60.82%
